Assay results as given in the NIST ThermoML archive (doi:10.1021/je0500330).
Numbers after ± are expanded uncertainties.

Columns and labels:
[1] = Liquid; for speed of sound / mass density: 298.15 K, 101.33 kPa; for speed of sound: Sing-around technique in a fixed-path interferometer; for mass density: Vibrating tube method
[2] = refractive index (Na D-line) (dimensionless); conditions: 298.15 K; 101.33 kPa; Liquid; Standard Abbe refractometry
[3] = refractive index (Na D-line) (dimensionless); xn = mol fraction of the nth substance listed; conditions: 298.15 K, 101.3 kPa, Liquid
[4] = xn = mol fraction of the nth substance listed; conditions: 298.15 K, 101.3 kPa, Liquid

CCC(C)CO (centres undefined) [2-methyl-1-butanol]
speed of sound [1]: 1253 ± 2 m/s | mass density [1]: 814.87 ± 0.2 kg/m3 | vapor or sublimation pressure ([1]; 401.58 K): 101.3 ± 3 kPa | vapor or sublimation pressure ([1]; 401.86 K): 101.3 ± 3 kPa | refractive index [2]: 1.40872 ± 0.14

CCC(C)CO (centres undefined) [2-methyl-1-butanol] + CCO
refractive index ([3]; x2 = 0.0486): 1.40734 ± 0.00063 | refractive index ([3]; x2 = 0.1013): 1.40583 ± 0.00063 | refractive index ([3]; x2 = 0.1523): 1.40424 ± 0.00063 | refractive index ([3]; x2 = 0.1987): 1.40277 ± 0.00063 | refractive index ([3]; x2 = 0.2503): 1.40112 ± 0.00063 | refractive index ([3]; x2 = 0.3004): 1.39926 ± 0.00063 | refractive index ([3]; x2 = 0.3486): 1.39756 ± 0.00063 | refractive index ([3]; x2 = 0.4003): 1.39549 ± 0.00063 | refractive index ([3]; x2 = 0.4502): 1.39341 ± 0.00063 | refractive index ([3]; x2 = 0.5004): 1.3912 ± 0.00063 | refractive index ([3]; x2 = 0.5502): 1.38899 ± 0.00063 | refractive index ([3]; x2 = 0.6004): 1.38636 ± 0.00064 | refractive index ([3]; x2 = 0.6503): 1.38373 ± 0.00064 | refractive index ([3]; x2 = 0.7): 1.38109 ± 0.00064 | refractive index ([3]; x2 = 0.8009): 1.37475 ± 0.00064 | refractive index ([3]; x2 = 0.8503): 1.37134 ± 0.00064 | refractive index ([3]; x2 = 0.9002): 1.36758 ± 0.00065 | refractive index ([3]; x2 = 0.9503): 1.36358 ± 0.00065 | mass density ([4]; x2 = 0.0486): 814.11 ± 0.45 kg/m3 | speed of sound ([4]; x2 = 0.0486): 1247.7 ± 2.2 m/s | mass density ([4]; x2 = 0.1013): 813.23 ± 0.45 kg/m3 | speed of sound ([4]; x2 = 0.1013): 1245 ± 2.2 m/s | mass density ([4]; x2 = 0.1523): 812.31 ± 0.45 kg/m3 | speed of sound ([4]; x2 = 0.1523): 1241.4 ± 2.2 m/s | mass density ([4]; x2 = 0.1987): 811.39 ± 0.45 kg/m3 | speed of sound ([4]; x2 = 0.1987): 1237.6 ± 2.2 m/s | mass density ([4]; x2 = 0.2503): 810.38 ± 0.46 kg/m3 | speed of sound ([4]; x2 = 0.2503): 1233.6 ± 2.2 m/s | mass density ([4]; x2 = 0.3004): 809.33 ± 0.46 kg/m3 | speed of sound ([4]; x2 = 0.3004): 1229.6 ± 2.2 m/s | mass density ([4]; x2 = 0.3486): 808.22 ± 0.46 kg/m3 | speed of sound ([4]; x2 = 0.3486): 1225.3 ± 2.2 m/s | mass density ([4]; x2 = 0.4003): 807.02 ± 0.46 kg/m3 | speed of sound ([4]; x2 = 0.4003): 1221 ± 2.2 m/s | mass density ([4]; x2 = 0.4502): 805.74 ± 0.47 kg/m3 | speed of sound ([4]; x2 = 0.4502): 1215.9 ± 2.2 m/s | mass density ([4]; x2 = 0.5004): 804.41 ± 0.47 kg/m3 | speed of sound ([4]; x2 = 0.5004): 1210.5 ± 2.2 m/s | mass density ([4]; x2 = 0.5502): 803.01 ± 0.47 kg/m3 | speed of sound ([4]; x2 = 0.5502): 1205.4 ± 2.2 m/s | mass density ([4]; x2 = 0.6004): 801.43 ± 0.48 kg/m3 | speed of sound ([4]; x2 = 0.6004): 1199.4 ± 2.2 m/s | mass density ([4]; x2 = 0.6503): 799.81 ± 0.48 kg/m3 | speed of sound ([4]; x2 = 0.6503): 1193.1 ± 2.2 m/s | mass density ([4]; x2 = 0.7): 798.1 ± 0.48 kg/m3 | speed of sound ([4]; x2 = 0.7): 1186.9 ± 2.2 m/s | mass density ([4]; x2 = 0.8009): 794.32 ± 0.49 kg/m3 | speed of sound ([4]; x2 = 0.8009): 1173 ± 2.2 m/s | mass density ([4]; x2 = 0.8503): 792.34 ± 0.5 kg/m3 | speed of sound ([4]; x2 = 0.8503): 1166 ± 2.2 m/s | mass density ([4]; x2 = 0.9002): 790.13 ± 0.5 kg/m3 | speed of sound ([4]; x2 = 0.9002): 1158.2 ± 2.1 m/s | mass density ([4]; x2 = 0.9503): 787.77 ± 0.51 kg/m3 | speed of sound ([4]; x2 = 0.9503): 1150.2 ± 2.1 m/s

CCC(C)CO (centres undefined) [2-methyl-1-butanol] + CO
refractive index ([3]; x2 = 0.0485): 1.40702 ± 0.00063 | refractive index ([3]; x2 = 0.1016): 1.40511 ± 0.00063 | refractive index ([3]; x2 = 0.1543): 1.40324 ± 0.00063 | refractive index ([3]; x2 = 0.1987): 1.40162 ± 0.00063 | refractive index ([3]; x2 = 0.2528): 1.39907 ± 0.00063 | refractive index ([3]; x2 = 0.3017): 1.39712 ± 0.00063 | refractive index ([3]; x2 = 0.3496): 1.39461 ± 0.00063 | refractive index ([3]; x2 = 0.4005): 1.39181 ± 0.00063 | refractive index ([3]; x2 = 0.4506): 1.38875 ± 0.00064 | refractive index ([3]; x2 = 0.4987): 1.38569 ± 0.00064 | refractive index ([3]; x2 = 0.5502): 1.38222 ± 0.00064 | refractive index ([3]; x2 = 0.6003): 1.37832 ± 0.00064 | refractive index ([3]; x2 = 0.6487): 1.37416 ± 0.00065 | refractive index ([3]; x2 = 0.7003): 1.36946 ± 0.00065 | refractive index ([3]; x2 = 0.7504): 1.3642 ± 0.00066 | refractive index ([3]; x2 = 0.8002): 1.35846 ± 0.00067 | refractive index ([3]; x2 = 0.8503): 1.35214 ± 0.00068 | refractive index ([3]; x2 = 0.9004): 1.34482 ± 0.0007 | refractive index ([3]; x2 = 0.9503): 1.33618 ± 0.00071 | mass density ([4]; x2 = 0.0485): 814.3 ± 0.45 kg/m3 | speed of sound ([4]; x2 = 0.0485): 1250.7 ± 2.2 m/s | mass density ([4]; x2 = 0.1016): 813.63 ± 0.44 kg/m3 | speed of sound ([4]; x2 = 0.1016): 1246.7 ± 2.2 m/s | mass density ([4]; x2 = 0.1543): 812.9 ± 0.44 kg/m3 | speed of sound ([4]; x2 = 0.1543): 1242.6 ± 2.2 m/s | mass density ([4]; x2 = 0.1987): 812.22 ± 0.44 kg/m3 | speed of sound ([4]; x2 = 0.1987): 1238.7 ± 2.2 m/s | mass density ([4]; x2 = 0.2528): 811.35 ± 0.44 kg/m3 | speed of sound ([4]; x2 = 0.2528): 1233.9 ± 2.2 m/s | mass density ([4]; x2 = 0.3017): 810.5 ± 0.44 kg/m3 | speed of sound ([4]; x2 = 0.3017): 1229 ± 2.2 m/s | mass density ([4]; x2 = 0.3496): 809.49 ± 0.45 kg/m3 | speed of sound ([4]; x2 = 0.3496): 1223 ± 2.2 m/s | mass density ([4]; x2 = 0.4005): 808.36 ± 0.45 kg/m3 | speed of sound ([4]; x2 = 0.4005): 1217 ± 2.2 m/s | mass density ([4]; x2 = 0.4506): 807.25 ± 0.45 kg/m3 | speed of sound ([4]; x2 = 0.4506): 1210.7 ± 2.2 m/s | mass density ([4]; x2 = 0.4987): 806.12 ± 0.45 kg/m3 | speed of sound ([4]; x2 = 0.4987): 1204.2 ± 2.2 m/s | mass density ([4]; x2 = 0.5502): 804.84 ± 0.45 kg/m3 | speed of sound ([4]; x2 = 0.5502): 1197.2 ± 2.2 m/s | mass density ([4]; x2 = 0.6003): 803.4 ± 0.45 kg/m3 | speed of sound ([4]; x2 = 0.6003): 1188.8 ± 2.1 m/s | mass density ([4]; x2 = 0.6487): 801.91 ± 0.45 kg/m3 | speed of sound ([4]; x2 = 0.6487): 1180.7 ± 2.1 m/s | mass density ([4]; x2 = 0.7003): 800.27 ± 0.45 kg/m3 | speed of sound ([4]; x2 = 0.7003): 1171.5 ± 2.1 m/s | mass density ([4]; x2 = 0.7504): 798.44 ± 0.46 kg/m3 | speed of sound ([4]; x2 = 0.7504): 1162.7 ± 2.1 m/s | mass density ([4]; x2 = 0.8002): 796.5 ± 0.46 kg/m3 | speed of sound ([4]; x2 = 0.8002): 1151.4 ± 2.1 m/s | mass density ([4]; x2 = 0.8503): 794.35 ± 0.46 kg/m3 | speed of sound ([4]; x2 = 0.8503): 1142.2 ± 2.1 m/s | mass density ([4]; x2 = 0.9004): 791.96 ± 0.47 kg/m3 | speed of sound ([4]; x2 = 0.9004): 1131.5 ± 2.1 m/s | mass density ([4]; x2 = 0.9503): 789.39 ± 0.47 kg/m3 | speed of sound ([4]; x2 = 0.9503): 1120.5 ± 2.1 m/s

CCO [ethanol]
speed of sound [1]: 1143 ± 2 m/s | mass density [1]: 785.36 ± 0.23 kg/m3 | vapor or sublimation pressure ([1]; 351.5 K): 101.3 ± 3 kPa | refractive index [2]: 1.35916 ± 0.00032

CO [methanol]
speed of sound [1]: 1102 ± 2 m/s | mass density [1]: 787.14 ± 0.14 kg/m3 | vapor or sublimation pressure ([1]; 337.65 K): 101.3 ± 3 kPa | refractive index [2]: 1.32667 ± 0.00033
